From US6436948B1, “Method for the treatment of psoriasis and genital warts” (priority 1995, dated 2002)

Columns and labels:
[1] = system: KB nasopharyngeal carcinoma cell line; assay: In vitro cytotoxicity, methylene blue assay / cell count: KB; format: cell-based; conditions: three generations, mean ± standard deviation of five experiments, read-out: ID50 (the source's name)
[2] = system: DU-145 prostate carcinoma line; assay: In vitro cytotoxicity, methylene blue assay / cell count: DU-145; format: cell-based; conditions: Homo sapiens, read-out: ID50 (the source's name)
[3] = system: PC-3 prostate carcinoma line; assay: In vitro cytotoxicity, methylene blue assay / cell count: PC-3; format: cell-based; conditions: three generations, mean ± standard deviation of five experiments, read-out: ID50 (the source's name)
HepG2 cells = assay: In vitro cytotoxicity, methylene blue assay / cell count: HepG2; format: cell-based; conditions: Homo sapiens, three generations, mean ± standard deviation of five experiments, read-out: ID50 (the source's name)
CEM cells = assay: In vitro cytotoxicity, methylene blue assay / cell count: CEM; format: cell-based; conditions: Homo sapiens, CCRF-CEM, three generations, mean ± standard deviation of five experiments, read-out: ID50 (the source's name)
HepG2 tumors = assay: HepG2 xenograft in NCr nude mice; format: in vivo, human; conditions: 25 mg/kg twice a day on days 0 through 4, NCr nude mice
Description: (§1) FIG. 5 is a graph of the inhibition of human tumor growth by […]. Three to six week old NCr nude mice were inoculated subcutaneously in each flank with 2×10^6 HepG2 or DU-145 cells. Treatment was started when the tumors were in an advanced stage of growth. Drugs were administered twice a day on days 0 through 4 and tumor sizes were measured on the indicated days. […] Each data point represents the means±SD of 10 tumors in graph A and six tumors in graph B.
(§2) Three to six-week-old NCr nude mice (Taconic Immunodeficient Mice and Rats) were inoculated s.c. in each flank with 2×10^6HepG2 or DU-145 cells and tumors were allowed to grow. Treatment was started when the tumors were 100-250mg as determined by caliper measurement and calculated according to the formula:
(§3) Tumor Weight(mg)=length(mm)×width(mm^2)÷2
(§4) Drugs were given at the indicated doses on days 0 through 4 and tumor sizes were measured every several days. The tumor growth curves were generated as described in Bell, et al., Cancer(phila.) 36:2437-2440 (1975), and are illustrated in FIGS. 5(a) and 5(b).

DU-145 tumors = assay: DU-145 xenograft in NCr nude mice; format: in vivo, human; conditions: 25 mg/kg twice a day on days 0 through 4, NCr nude mice
Description: as §1, §2, §3, §4

NCr nude mice = format: in vivo; conditions: mouse, in vivo, 25 mg/kg
Description: as §4
Toxicity was evaluated by changes in body weight.

Question: `Nc1ccn([C@@H]2O[C@H](CO)[C@@H](O)[C@@H]2O)c(=O)n1` [AraC, Cytosine arabinoside] was tested. Which IC50 [1] did it give?
Answer: The IC50 was 0.152 ± 0.01 µM.

Question: And the IC50 [2]?
Answer: The IC50 was 0.17 ± 0.035 µM.

Question: What about the IC50 [3] of the same compound?
Answer: Its IC50 is 0.2 ± 0.078 µM.

Question: And the IC50 (HepG2 cells)?
Answer: Its IC50 is 0.125 ± 0.013 µM.

Question: What about the IC50 (CEM cells) of the same compound?
Answer: Its IC50 is 0.03 ± 0.01 µM.

Question: And the “Effect on HepG2 tumors in words” value (HepG2 tumors)?
Answer: Its value is “ineffective”.

Question: And the “Effect on HepG2 tumors in words” value (HepG2 tumors; listed as arac)?
Answer: The value was “inactive”.

Question: What about the “Effect on DU-145 tumors in words” value (DU-145 tumors) of the same compound?
Answer: Its value is “ineffective”.

Question: And the “Toxicity as indicated by weight loss of the animals” value (NCr nude mice)?
Answer: The value was “equally toxic”.
